Consider nine molecules from patent publication EP0407137B1, “Benzazine compounds and pharmaceutical uses thereof” (priority 1989, dated 1991).

The structures appear in SMILES notation. Where a name gives a salt, the structure may show the parent alone.

Experiment [1] relates to 5-HT₃ receptor. The experiment is described as follows: Antagonistic effect against von Bezold-Jarish reflex caused by serotonin in anesthetized rats. It is filed as in vivo, Male Wistar rats. Particulars: i.v., 5 minutes before serotonin (20 µg/kg i.v.), dose required to antagonize the reflex bradycardia by 50%. The protocol: 5-HT₃ receptor blocking effects of the compounds of the present invention were evaluated based on the antagonistic effects against van Bezold-Jarish reflex caused by administering serotonin to anesthetized rats as an index according to Forzard's method described in Naunyuschmiedeberg's Arch. Pharmacol., vol.326, pp36, 1984.
Male Wistar rats weighing 350-450 g were anesthetized with an intraperitoneal injection of 1.25g/kg of urethane. The left jugular vein was cannulated for the intravenous injection and the left femoral […] was cannulated for the measurement of blood pressure and heart rate. Serotonin (20 µg/kg) was intravenously injected, and the compounds of the present invention were intravenously injected 5 minutes before the challenge with serotonin. The antagonistic activity of the compounds of the present invention against the caused reflex bradycardia was measured and the effective dose (ED₅₀, µg/kg), the dose required to antagonize the maximum activity by 50%, was determined.

In experiment [2] the target is T1, serotonin 1A (5-HT1A) receptor (Rattus norvegicus, UniProt P19327).
T1 sequence (P19327 1-422): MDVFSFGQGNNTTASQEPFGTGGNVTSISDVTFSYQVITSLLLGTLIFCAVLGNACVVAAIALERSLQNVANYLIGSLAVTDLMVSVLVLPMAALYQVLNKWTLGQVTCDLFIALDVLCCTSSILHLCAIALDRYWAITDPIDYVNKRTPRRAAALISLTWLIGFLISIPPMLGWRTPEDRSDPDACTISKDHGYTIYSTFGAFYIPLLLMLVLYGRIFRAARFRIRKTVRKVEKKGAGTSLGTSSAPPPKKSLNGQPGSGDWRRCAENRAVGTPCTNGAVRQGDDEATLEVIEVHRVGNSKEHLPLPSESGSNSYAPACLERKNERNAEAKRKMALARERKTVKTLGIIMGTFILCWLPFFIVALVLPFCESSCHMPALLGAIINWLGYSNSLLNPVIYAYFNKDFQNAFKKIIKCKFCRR
Kind of experiment: Serotonin binding test (tritium 8-OH-DPAT, crude synaptosome fraction from hippocampus). The arrangement: species or system Wistar rat. Particulars: tritium 8-OH-DPAT 0.2 nM, 37°C for 12 minutes, rat hippocampus synaptosomes; read-out: Serotonin binding test IC₅₀. The procedure:
Specific serotonin 1A (5-HT1A) receptor binding test was conducted in accordance with the manner described in Journal of the Neurochemistry, vol.44, page 1685, 1985.
Crude synaptosome fraction was separated from hippocampus of 9 to 10 weeks-aged Wistar rat and suspended into 50 mM tris-hydrochloric acid buffer solution (pH 7.4) containing 1 mM manganese chloride.
Next, to the resulting synaptosome suspension were added the test compound of the present invention at several concentrations and tritium 8-OH-DPAT at the terminal concentration of 0.2 nM, and the mixture was allowed to react at 37°C for 12 minutes. After completion of the reaction, the reaction mixture was suction filtered through Whatman GF/B glass filter. The glass filter was washed with 50 mM tris-hydrochloric acid buffer solution (pH 7.4), and then the radioactivity of the residue remaining on the glass filter was measured by liquid scintillation counter. Non-specific binding was determined under the presence of 10⁻⁵M serotonin (5-HT). 50% Inhibition concentration (IC₅₀) of test compound was graphically determined.

In experiment [3] the target is T2, dopamine D₂ receptor (Rattus norvegicus, UniProt P61169).
T2 construct: Crude synaptosome fraction was separated from corpus striatum of 9 to 10 weeks-aged Wistar rats; from tissue; host or cells: rat corpus striatum, crude synaptosome fraction
The experiment is described as follows: Dopamine D₂ binding test (tritium Spiperone, crude synaptosome fraction from corpus striatum). Also on record: species or system Wistar rats. As to conditions: tritium Spiperone 0.2 nM, 37°C for 20 minutes, rat corpus striatum synaptosomes; read-out: Dopamine D₂ binding test IC₅₀. The procedure:
Crude synaptosome fraction was separated from corpus striatum of 9 to 10 weeks-aged Wistar rats and suspended into 50 mM tris-hydrochloric acid buffer solution (pH 7.1) containing 120 mM sodium chloride, 5 mM potassium chloride, 2 mM calcium chloride, 1 mM magnesium chloride, 10 µM pargyline and 0.1% ascorbic acid. Next, to the resulting synaptosome suspension were added the test compound of the present invention at several concentrations and tritium Spiperone at the terminal concentration of 0.2 nM, and the mixture was allowed to react at 37°C for 20 minutes. After completion of the reaction, the reaction mixture was suction filtered through Whatman GF/B glass filter. The glass filter was washed with 50 mM tris-hydrochloric acid buffer solution (pH 7.7), and then the radioactivity of the residue remaining on the glass filter was measured by liquid scintillation counter. Non-specific binding was determined under the presence of […]. 50% Inhibition concentration (IC₅₀) of the test compound was graphically determined.

T2 sequence (P61169 whole entry): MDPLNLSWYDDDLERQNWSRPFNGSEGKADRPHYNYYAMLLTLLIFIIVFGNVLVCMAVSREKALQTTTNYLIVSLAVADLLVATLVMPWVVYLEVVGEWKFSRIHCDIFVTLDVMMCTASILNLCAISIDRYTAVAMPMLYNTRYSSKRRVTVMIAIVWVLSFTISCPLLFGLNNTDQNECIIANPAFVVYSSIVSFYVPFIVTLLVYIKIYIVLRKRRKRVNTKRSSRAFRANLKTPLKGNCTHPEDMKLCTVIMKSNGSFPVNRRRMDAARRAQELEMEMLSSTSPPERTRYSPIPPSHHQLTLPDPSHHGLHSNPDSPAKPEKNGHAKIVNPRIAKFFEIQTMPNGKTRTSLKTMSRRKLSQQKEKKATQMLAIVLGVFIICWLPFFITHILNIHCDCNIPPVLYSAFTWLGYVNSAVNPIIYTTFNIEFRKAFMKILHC

In experiment [1], `CN1CCOc2c(C(=O)NC3CN4CCC3CC4)cc(Cl)cc21.Cl` (centres unmarked) [Example 1, 6-chloro-4-methyl-N-(3-quinuclidinyl)-3,4-dihydro-2H-1,4-benzoxazine-8-carboxamide hydrochloride] had an ED₅₀ of 0.28 µg/kg.
On the same count and under the same terms, with `CN1CC(C)(C)Oc2c(C(=O)NC3CN4CCC3CC4)cc(Cl)cc21.Cl` (centres unmarked) [Example 3, 6-chloro-2,2,4-trimethyl-N-(3-quinuclidinyl)-3,4-dihydro-2H-1,4-benzoxazine-8-carboxamide hydrochloride] the figure was 0.12 µg/kg; with `CN1CC(C)(C)Oc2c(C(=O)N[C@H]3CN4CCC3CC4)cc(Cl)cc21.Cl` [Example 4, (R)-6-chloro-2,2,4-trimethyl-N-(3-quinuclidinyl)-3,4-dihydro-2H-1,4-benzoxazine-8-carboxamide hydrochloride], 0.17 µg/kg.
Same read-out and setting: with `CN1CC(C)(C)Oc2c(C(=O)N[C@@H]3CN4CCC3CC4)cc(Cl)cc21.Cl` [Example 5, (S)-6-chloro-2,2,4-trimethyl-N-(3-quinuclidinyl)-3,4-dihydro-2H-1,4-benzoxazine-8-carboxamide hydrochloride] the figure was 0.11 µg/kg; with `CN1CCOc2c(C(=O)N[C@H]3CN4CCC3CC4)cc(Cl)cc21` [Example 7, (R)-6-chloro-4-methyl-N-(3-quinuclidinyl)-3,4-dihydro-2H-1,4-benzoxazine-8-carboxamide], 0.73 µg/kg.
For the molecule `CCN1CCCC1CNC(=O)c1cc(Cl)cc2c1OCCN2C` (centres unmarked) [Example 13, 6-chloro-4-methyl-N-[(1-ethyl-2-pyrrolidinyl)methyl]-3,4-dihydro-2H-1,4-benzoxazine-8-carboxamide hydrochloride], in experiment [2], the IC50 is 750 nM.
With `CCCCN1CCCC1CNC(=O)c1cc(Cl)cc2c1OCCN2C` (centres unmarked) [Example 14, 6-chloro-4-methyl-N-[(1-butyl-2-pyrrolidinyl)-methyl]-3,4-dihydro-2H-1,4-benzoxazine-8-carboxamide hydrochloride], the IC50 in experiment [2] is 62 nM.
Take `CCCCCCCCCN1CCC[C@@H]1CNC(=O)c1cc(Cl)cc2c1OCCN2C` [Example 38, (R)-(+)-6-chloro-4-methyl-N-[(1-nonyl-2-pyrrolidinyl)methyl]-3,4-dihydro-2H-1,4-benzoxazine-8-carboxamide]: the figures for the IC50 in experiment [2] and in experiment [3] were 24 nM and 690 nM, respectively.
The like results for `CCCCN1CCC[C@@H]1CNC(=O)c1cc(Cl)cc2c1OCCN2C` [Example 39, (R)-(+)-N-[(1-butyl-2-pyrrolidinyl)methyl]-6-chloro-4-methyl-3,4-dihydro-2H-1,4-benzoxazine-8-carboxamide] were, in that order, 420 nM and 630 nM.
